Key:
MRSA [1] = test: Screening on Isosensitest agar with incorporated BTA and 10 μg methicillin discs; type: cell-based, Staphylococcus aureus; conditions: BTA 0.01-1.0% in Isosensitest agar; 10 μg methicillin discs; reference MRSA (type strain), OMRSA, EMRSA-1, EMRSA-16
Description: To find substances related to GBE that might have increased potency, various substances, including those with additional glycine moieties and benzylates, have been screened. Screening was carried out using Isosensitest agar (Oxoid, UK) into which various levels of potential BTAs were incorporated at levels between 0.01 and 1.0%. The agar with incorporated BTA was then used in the manner of a standard antibiotic sensitivity test using 10 μg methicillin discs. The test organism was inoculated onto the agar surface at a concentration suitable to achieve confluent growth after 18 hours incubation at 30° C. After incubation, zone diameters were compared with that achieved by the control plate (Isosensitest alone) for each test organism.

MRSA [2] = test: MIC of methicillin for MRSA isolates grown with glycine or GBE (Table 1); type: cell-based, Staphylococcus aureus

NCC(=O)O [Glycine, glycine]
transformation of MRSA (methicillin disc zone diameter versus control plate) (MRSA [1]): transformed | strains tested achieving the target MIC (MRSA [2]; 0.2 M glycine, said of Table 1): 50% | MIC of methicillin (MRSA [2]; CD40 (EMRSA-1), glycine 0.02M (0.15%)): 32 mg/L | MIC of methicillin (MRSA [2]; CD40 (EMRSA-1), glycine 0.2M (1.5%)): 4 mg/L | MIC of methicillin (MRSA [2]; DS09 (EMRSA-1), glycine 0.02M (0.15%)): 32 mg/L | MIC of methicillin (MRSA [2]; DS09 (EMRSA-1), glycine 0.2M (1.5%)): 4 mg/L | MIC of methicillin (MRSA [2]; E15-97 (EMRSA-15), glycine 0.02M (0.15%)): 32 mg/L | MIC of methicillin (MRSA [2]; E15-97 (EMRSA-15), glycine 0.2M (1.5%)): 4 mg/L | MIC of methicillin (MRSA [2]; E16-96 (EMRSA-16), glycine 0.02M (0.15%)): 32 mg/L | MIC of methicillin (MRSA [2]; E16-96 (EMRSA-16), glycine 0.2M (1.5%)): 4 mg/L | MIC of methicillin (MRSA [2]; JF1-32 (EMRSA-1), glycine 0.02M (0.15%)): 32 mg/L | MIC of methicillin (MRSA [2]; JF1-32 (EMRSA-1), glycine 0.2M (1.5%)): 4 mg/L | MIC of methicillin (MRSA [2]; L265, glycine 0.02M (0.15%)): 64 mg/L | MIC of methicillin (MRSA [2]; L265, glycine 0.2M (1.5%)): 8 mg/L | MIC of methicillin (MRSA [2]; L266, glycine 0.02M (0.15%)): 64 mg/L | MIC of methicillin (MRSA [2]; L266, glycine 0.2M (1.5%)): 8 mg/L | MIC of methicillin (MRSA [2]; L267, glycine 0.02M (0.15%)): 32 mg/L | MIC of methicillin (MRSA [2]; L267, glycine 0.2M (1.5%)): 8 mg/L | MIC of methicillin (MRSA [2]; L268, glycine 0.02M (0.15%)): 32 mg/L | MIC of methicillin (MRSA [2]; L268, glycine 0.2M (1.5%)): 8 mg/L | MIC of methicillin (MRSA [2]; L269, glycine 0.02M (0.15%)): 16 mg/L | MIC of methicillin (MRSA [2]; L269, glycine 0.2M (1.5%)): 4 mg/L | MIC of methicillin (MRSA [2]; L270, glycine 0.02M (0.15%)): 8 mg/L | MIC of methicillin (MRSA [2]; L270, glycine 0.2M (1.5%)): 4 mg/L | MIC of methicillin (MRSA [2]; L271, glycine 0.02M (0.15%)): 8 mg/L | MIC of methicillin (MRSA [2]; L271, glycine 0.2M (1.5%)): 4 mg/L | MIC of methicillin (MRSA [2]; L272, glycine 0.02M (0.15%)): 16 mg/L | MIC of methicillin (MRSA [2]; L272, glycine 0.2M (1.5%)): 2 mg/L | MIC of methicillin (MRSA [2]; L273, glycine 0.02M (0.15%)): 8 mg/L | MIC of methicillin (MRSA [2]; L273, glycine 0.2M (1.5%)): 4 mg/L | MIC of methicillin (MRSA [2]; L274, glycine 0.02M (0.15%)): 16 mg/L | MIC of methicillin (MRSA [2]; L274, glycine 0.2M (1.5%)): 4 mg/L | MIC of methicillin (MRSA [2]; L275, glycine 0.02M (0.15%)): 32 mg/L | MIC of methicillin (MRSA [2]; L275, glycine 0.2M (1.5%)): 8 mg/L | MIC of methicillin (MRSA [2]; L276, glycine 0.02M (0.15%)): 16 mg/L | MIC of methicillin (MRSA [2]; L276, glycine 0.2M (1.5%)): 4 mg/L | MIC of methicillin (MRSA [2]; L277, glycine 0.02M (0.15%)): 8 mg/L | MIC of methicillin (MRSA [2]; L277, glycine 0.2M (1.5%)): 4 mg/L | MIC of methicillin (MRSA [2]; L278, glycine 0.02M (0.15%)): 64 mg/L | MIC of methicillin (MRSA [2]; L278, glycine 0.2M (1.5%)): 16 mg/L | MIC of methicillin (MRSA [2]; L279, glycine 0.02M (0.15%)): 64 mg/L | MIC of methicillin (MRSA [2]; L279, glycine 0.2M (1.5%)): 2 mg/L | MIC of methicillin (MRSA [2]; L280, glycine 0.02M (0.15%)): 16 mg/L | MIC of methicillin (MRSA [2]; L280, glycine 0.2M (1.5%)): 4 mg/L | MIC of methicillin (MRSA [2]; L281, glycine 0.02M (0.15%)): 32 mg/L | MIC of methicillin (MRSA [2]; L281, glycine 0.2M (1.5%)): 4 mg/L | MIC of methicillin (MRSA [2]; L282, glycine 0.02M (0.15%)): 32 mg/L | MIC of methicillin (MRSA [2]; L282, glycine 0.2M (1.5%)): 4 mg/L | MIC of methicillin (MRSA [2]; L283, glycine 0.02M (0.15%)): 32 mg/L | MIC of methicillin (MRSA [2]; L283, glycine 0.2M (1.5%)): 4 mg/L | MIC of methicillin (MRSA [2]; L284, glycine 0.02M (0.15%)): 32 mg/L | MIC of methicillin (MRSA [2]; L284, glycine 0.2M (1.5%)): 2 mg/L | MIC of methicillin (MRSA [2]; L285, glycine 0.02M (0.15%)): 32 mg/L | MIC of methicillin (MRSA [2]; L285, glycine 0.2M (1.5%)): 4 mg/L | MIC of methicillin (MRSA [2]; L286, glycine 0.02M (0.15%)): 32 mg/L | MIC of methicillin (MRSA [2]; L286, glycine 0.2M (1.5%)): 4 mg/L | MIC of methicillin (MRSA [2]; L287, glycine 0.02M (0.15%)): 32 mg/L | MIC of methicillin (MRSA [2]; L287, glycine 0.2M (1.5%)): 4 mg/L | MIC of methicillin (MRSA [2]; L288, glycine 0.02M (0.15%)): 32 mg/L | MIC of methicillin (MRSA [2]; L288, glycine 0.2M (1.5%)): 4 mg/L | MIC of methicillin (MRSA [2]; L289, glycine 0.02M (0.15%)): 32 mg/L | MIC of methicillin (MRSA [2]; L289, glycine 0.2M (1.5%)): 4 mg/L | MIC of methicillin (MRSA [2]; L290, glycine 0.02M (0.15%)): 32 mg/L | MIC of methicillin (MRSA [2]; L290, glycine 0.2M (1.5%)): 4 mg/L | MIC of methicillin (MRSA [2]; L291, glycine 0.02M (0.15%)): 32 mg/L | MIC of methicillin (MRSA [2]; L291, glycine 0.2M (1.5%)): 4 mg/L | MIC of methicillin (MRSA [2]; L292, glycine 0.02M (0.15%)): 32 mg/L | MIC of methicillin (MRSA [2]; L292, glycine 0.2M (1.5%)): 4 mg/L | MIC of methicillin (MRSA [2]; L293, glycine 0.02M (0.15%)): 32 mg/L | MIC of methicillin (MRSA [2]; L293, glycine 0.2M (1.5%)): 4 mg/L | MIC of methicillin (MRSA [2]; L294, glycine 0.02M (0.15%)): 32 mg/L | MIC of methicillin (MRSA [2]; L294, glycine 0.2M (1.5%)): 4 mg/L | MIC of methicillin (MRSA [2]; MC01 (EMRSA-1), glycine 0.02M (0.15%)): 32 mg/L | MIC of methicillin (MRSA [2]; MC01 (EMRSA-1), glycine 0.2M (1.5%)): 4 mg/L | MIC of methicillin (MRSA [2]; NCTC 12493, glycine 0.02M (0.15%)): 0.12 mg/L | MIC of methicillin (MRSA [2]; NCTC 12493, glycine 0.2M (1.5%)): 0.06 mg/L | MIC of methicillin (MRSA [2]; PS3-32 (EMRSA-1), glycine 0.02M (0.15%)): 32 mg/L | MIC of methicillin (MRSA [2]; PS3-32 (EMRSA-1), glycine 0.2M (1.5%)): 4 mg/L | MIC of methicillin (MRSA [2]; SN31 (EMRSA-1), glycine 0.02M (0.15%)): 32 mg/L | MIC of methicillin (MRSA [2]; SN31 (EMRSA-1), glycine 0.2M (1.5%)): 4 mg/L | MIC of methicillin (MRSA [2]; ST11 (EMRSA-1), glycine 0.02M (0.15%)): 32 mg/L | MIC of methicillin (MRSA [2]; ST11 (EMRSA-1), glycine 0.2M (1.5%)): 4 mg/L | MIC of methicillin (MRSA [2]; SW2-32 (EMRSA-1), glycine 0.02M (0.15%)): 32 mg/L

Source: patent US20060040871A1, “Bacterial transforming agent” (priority 2003, published 2006)
